Tests used:
MCF7 cells = type: cell-based
PBMC = type: cell-based

SLO
dose dependence of change in Fc (MCF7 cells): the higher the dose, the bigger the change in the Fc
recovered Fc versus native Fc (MCF7 cells): increases higher than the native Fc
recovered Fc versus native Fc (PBMC): drops to a lower value than the native Fc

Source: patent US9683253B2, “Method and device for identifying cells” (IMEC, priority 2013, dated 2017)
